# Where two headings read alike, the source gives them in different places.
# How the values were obtained:
# Ikaros and Aiolos [1] = test: Immunoblot of Ikaros and Aiolos in DF15R and DF15R-human CRBN WT cells; assay type: cell-based; details: 0.1 μM, 4 hours
# Method: Shown are Cereblon, Ikaros, and Aiolos immunoblots of extracts from DF15R and DF15R-human CRBN^WT cells that were incubated with DMSO, pomalidomide, or Compound 2 at 0.1 μM for 4 hours. Tubulin is a loading control.
# To determine whether cereblon could serve as a biomarker for predicting response to Compound 2, the myeloma cell line DF15R was treated with Compound 2.
# Ikaros = Ikaros (Homo sapiens, UniProt Q13422+Q96SW2); test: Ikaros degradation in CD4+ T cells; assay type: cell-based; parameters: The effects of Compound 2 on the degradation of Ikaros in CD4+ and CD8+ T cells; endogenous in cells; host or cells: CD4+ and CD8+ T cells of healthy donors; CD34+ bone marrow cells of healthy donors; CD3+ T cells of multiple myeloma patients; details: 24 hours, read-out: Ikaros degradation IC50
# Chain of Ikaros (Q13422 whole entry): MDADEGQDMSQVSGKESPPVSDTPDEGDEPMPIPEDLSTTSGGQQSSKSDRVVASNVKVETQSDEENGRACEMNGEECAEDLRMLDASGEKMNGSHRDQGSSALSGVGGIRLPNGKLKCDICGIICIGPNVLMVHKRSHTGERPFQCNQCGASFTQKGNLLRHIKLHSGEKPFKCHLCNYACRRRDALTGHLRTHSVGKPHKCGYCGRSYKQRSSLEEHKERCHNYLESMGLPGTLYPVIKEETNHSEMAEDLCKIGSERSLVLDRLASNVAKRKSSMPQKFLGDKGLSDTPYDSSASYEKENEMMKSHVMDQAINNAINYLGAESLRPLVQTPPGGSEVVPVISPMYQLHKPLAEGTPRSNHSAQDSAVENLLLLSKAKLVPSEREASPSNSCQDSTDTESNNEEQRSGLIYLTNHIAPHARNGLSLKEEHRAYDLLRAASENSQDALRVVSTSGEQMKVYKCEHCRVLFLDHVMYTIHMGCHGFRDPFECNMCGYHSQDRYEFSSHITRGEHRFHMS
# Chain of Ikaros (Q16531 2-1140, further chain): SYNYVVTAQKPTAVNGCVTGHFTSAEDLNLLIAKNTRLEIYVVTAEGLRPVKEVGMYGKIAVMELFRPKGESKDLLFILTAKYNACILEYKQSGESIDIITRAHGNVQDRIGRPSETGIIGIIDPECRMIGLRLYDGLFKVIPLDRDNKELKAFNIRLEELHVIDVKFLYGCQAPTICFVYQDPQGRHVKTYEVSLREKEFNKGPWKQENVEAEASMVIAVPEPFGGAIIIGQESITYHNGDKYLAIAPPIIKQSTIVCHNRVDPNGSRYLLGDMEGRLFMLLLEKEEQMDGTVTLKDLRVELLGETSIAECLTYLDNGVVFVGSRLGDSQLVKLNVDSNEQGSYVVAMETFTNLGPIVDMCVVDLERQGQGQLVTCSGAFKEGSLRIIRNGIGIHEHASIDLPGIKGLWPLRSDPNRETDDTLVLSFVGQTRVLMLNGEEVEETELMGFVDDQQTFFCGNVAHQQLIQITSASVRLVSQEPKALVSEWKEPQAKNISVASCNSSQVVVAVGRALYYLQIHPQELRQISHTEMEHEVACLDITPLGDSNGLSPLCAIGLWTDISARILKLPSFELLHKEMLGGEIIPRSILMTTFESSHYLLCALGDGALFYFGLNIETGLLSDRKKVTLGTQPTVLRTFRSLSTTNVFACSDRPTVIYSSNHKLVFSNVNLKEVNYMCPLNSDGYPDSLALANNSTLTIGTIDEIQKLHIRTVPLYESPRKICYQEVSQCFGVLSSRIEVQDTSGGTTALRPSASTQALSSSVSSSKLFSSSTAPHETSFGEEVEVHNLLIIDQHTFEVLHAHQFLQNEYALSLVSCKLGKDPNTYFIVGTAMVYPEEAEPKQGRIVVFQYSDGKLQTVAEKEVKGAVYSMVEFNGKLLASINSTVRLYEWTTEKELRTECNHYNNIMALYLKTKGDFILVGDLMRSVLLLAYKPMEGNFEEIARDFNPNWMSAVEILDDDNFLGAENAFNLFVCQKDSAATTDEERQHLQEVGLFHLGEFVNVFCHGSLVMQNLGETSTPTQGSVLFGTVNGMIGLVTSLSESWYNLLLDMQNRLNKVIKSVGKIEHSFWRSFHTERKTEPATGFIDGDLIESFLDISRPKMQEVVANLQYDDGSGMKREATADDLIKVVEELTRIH
# Chain of Ikaros (Q96SW2 whole entry): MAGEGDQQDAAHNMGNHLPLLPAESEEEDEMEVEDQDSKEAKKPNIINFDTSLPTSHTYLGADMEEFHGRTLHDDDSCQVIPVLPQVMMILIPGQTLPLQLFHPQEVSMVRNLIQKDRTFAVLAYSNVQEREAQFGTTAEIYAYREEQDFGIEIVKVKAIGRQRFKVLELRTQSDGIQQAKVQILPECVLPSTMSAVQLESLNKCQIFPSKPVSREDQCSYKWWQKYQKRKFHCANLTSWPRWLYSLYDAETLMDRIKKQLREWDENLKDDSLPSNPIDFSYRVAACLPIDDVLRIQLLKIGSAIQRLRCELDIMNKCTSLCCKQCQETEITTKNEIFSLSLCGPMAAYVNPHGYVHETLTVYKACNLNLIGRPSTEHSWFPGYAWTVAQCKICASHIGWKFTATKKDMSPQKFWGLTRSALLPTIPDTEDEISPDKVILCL
# Method: FIG. 22A-FIG. 22C illustrate that Compound 2 induces degradation of Ikaros in CD4+ T cells. […] Data shown are an average from two donors and are represented as MFI normalized to DMSO control.
# The effects of Compound 2 on the degradation of Ikaros in CD4+ and CD8+ T cells over a 72 hour time course were investigated. The ability of Compound 2 to induce effector cytokine release correlated with degradation of Ikaros in CD4+ T cells, a known transcriptional repressor of IL-2 (FIG. 22A-FIG. 22C). […] The ability of Compound 2 to degrade Ikaros was also observed at the 48 and 72 hour time point in both CD4+(FIG. 22B and FIG. 22C) and CD8+ (data not shown) T cell populations. […] Thus, Ikaros and Aiolos can serve as biomarkers of T-cell activation.
# OPM2 cells = test: cells; assay type: cell-based, human; details: for IC50: Homo sapiens
# Method: The effect of the stabilizing mutations on cell proliferation was also measured.
# [2] = test system: multiple myeloma cell lines with acquired resistance; test: Proliferation (CellTiter-Glo, 5 days) of parental and lenalidomide- or pomalidomide-resistant MM cell lines; assay type: cell-based, human
# Method: Cell lines were treated with (FIG. 11A) Pomalidomide, or (FIG. 11B) Compound 2 for 5 days and IC50 values were assessed using an ATP determination assay (CellTiter-Glo). Percent control was calculated by subtracting the background and normalizing to the DMSO control (100% of control).
# Cells were treated for 5 days and then assessed using an ATP determination assay (CellTiter-Glo). The percentage of control was calculated by subtracting the background and normalizing to the DMSO control (100% of control).
# Proliferation was assessed using the CellTitre-Glo® assay.
# Ikaros and Aiolos [3] = test: Immunoblot of Ikaros and Aiolos in H929-1051 cells; assay type: cell-based, human; details: within 4 hours
# Method: FIG. 6A and FIG. 6B illustrate that Compound 2 degraded Ikaros and Aiolos in a concentration dependent manner, which induced apoptosis and cell cycle arrest in pomalidomide-resistant multiple myeloma cells. Shown is immunoblot analysis of pomalidomide-resistant MM cells (H929-1051) incubated with Compound 2 for (FIG. 6A) 4 hours or (FIG. 6B) 72 hours.
# Incubation with concentrations as low as 1 nM of Compound 2 promoted the robust degradation of Ikaros and Aiolos within 4 hours (FIG. 6A).
# [4] = test system: relapsed and refractory multiple myeloma; test: Phase 1 study, response to treatment (IMWG criteria); assay type: in vivo, human; details: subjects with >80% decrease in sBCMA or sFLC
# Aiolos and Ikaros = Aiolos and Ikaros degradation and re-expression by flow cytometry in H929-1051 and OPM2-P10 cells; assay type: cell-based, human
# Method: The cell lines were treated with a single continuous exposure to Compound 2, with no washout, and the levels of Aiolos and Ikaros were measured by flow cytometry. After treatment there was greater than 70% degradation of Aiolos and Ikaros within 3 to 6 hours, depending on the cell line (FIG. 7A and FIG. 7B). The depletion of substrates was sustained for up to 70 hours in H929-1051 cells or up to 100 hours in OPM2-P10 cells (FIG. 7A and FIG. 7B). Increasing the concentration 10-fold to 0.1 μM produced little to no additional degradation (FIG. 7A and FIG. 7B).
# The effect of transient exposures of H929-1051 cells to Compound 2 on the degradation of Aiolos and Ikaros was also evaluated. A short transient exposure of 15 minutes at 0.1 μM Compound 2 induced Aiolos and Ikaros degradation (FIG. 8). Although the extent of degradation (25% to 50%) was not complete, a prolonged pharmacodynamic (PD) effect was seen that lasted between 25 and 50 hours post-exposure (FIG. 8).
# To further understand the kinetics of Compound 2 exposure and Aiolos and Ikaros degradation, a longer exposure of 6 hours to Compound 2 (0.01 and 0.1 μM), followed by washout was investigated. Treatment with Compound 2 produced greater than 70% degradation of Aiolos and Ikaros (FIG. 9). […] Greater than 75% substrate recovery was seen by 25 hours in cells exposed to 0.01 μM Compound 2 and within 75 to 100 hours in cultures exposed to 0.1 μM Compound 2 (FIG. 9).
# [5] = test system: Aiolos, Ikaros, and ZFP91; test: Phase 1 study, IHC of bone marrow aspirate clots; assay type: in vivo, human; details: before and during treatment (Cycle 1)
# Text: FIG. 26A-FIG. 26E illustrate that the effect of Compound 2 on biomarker expression in CD138+ plasma cells from relapsed/refractory multiple myeloma patients. (FIG. 26A) Aiolos, (FIG. 26B) Ikaros, (FIG. 26C) ZFP91, (FIG. 26D) c-Myc, and (FIG. 26E) IRF4.
# Bone marrow aspirate samples were taken before and during Compound 2 treatment (Cycle 1). Clots were made from each sample and processed into formalin fixed paraffin embedded blocks. Immunohistochemistry (IHC) assays were used to evaluate the biomarker expression. IHC scores were determined based on percent and intensity of positive staining.
# H929-1051 = test: Apoptosis by Caspase-Glo 3/7 normalized to CellTiter-Glo in H929-1051 cells, dexamethasone alone or with compound; assay type: cell-based, human; details: 72 hours; Compound 2 0.001, 0.01 or 0.1 μM
# Method: Dexamethasone was dispensed at 20 concentrations, using an acoustic dispenser. The plates were sealed and stored at room temperature for the next day. […] Cells were dispensed into the assay plates with a Multidrop dispenser and duplicate plates were made for the assay. Measurement of apoptosis was made at 72 hours post-compound treatment using a Caspase-Glo 3/7 and CellTiter-Glo Assays. The Caspase-Glo 3/7 luminescence was normalized to the CellTiter-Glo luminescence to account for differences in cell number. The fold change of the treated sample was calculated as follows: normalized caspase of treated sample/average of normalized DMSO control.
# [6] = continuous exposure, OPM2-P10 cells
smiles,measurement,setting,value
"N#Cc1ccc(N2CCN(Cc3ccc(COc4cccc5c4CN([C@H]4CCC(=O)NC4=O)C5=O)cc3)CC2)c(F)c1 [Compound 2, (S)-4-(4-(4-(((2-(2,6-dioxopiperidin-3-yl)-1-oxoisoindolin-4-yl)oxy)methyl)benzyl)piperazin-1-yl)-3-fluorobenzonitrile]",degradation of Ikaros or Aiolos,"Ikaros and Aiolos [1]; DF15R cells, no detectable CRBN",did not show any degradation
same,degradation of Ikaros and Aiolos after reintroduction of CRBN,Ikaros and Aiolos [1]; DF15R-human CRBN WT cells,reactivated
same,DC50,Ikaros,0.3 nM
same,IC50,"OPM2 cells; OPM-2, cells overexpressing stabilized Ikaros mutants (Ikaros-Q146H or Ikaros-G151A), read-out: concentration at which cells had their proliferation inhibited by 50%",> 100 nM
same,IC50,"OPM2 cells; OPM-2, overexpressing Aiolos Q147H, read-out: Inhibition of Proliferation of OPM2 Cells IC50",0.06 nM
same,IC50,"OPM2 cells; OPM-2, overexpressing Aiolos, read-out: Inhibition of Proliferation of OPM2 Cells IC50",0.08 nM
same,IC50,"OPM2 cells; OPM-2, overexpressing Ikaros-G151A, read-out: Inhibition of Proliferation of OPM2 Cells IC50",> 100 nM
same,IC50,"OPM2 cells; OPM-2, overexpressing Ikaros-Q146H, read-out: Inhibition of Proliferation of OPM2 Cells IC50",> 100 nM
same,IC50,"OPM2 cells; OPM-2, overexpressing Ikaros, read-out: Inhibition of Proliferation of OPM2 Cells IC50",0.13 nM
same,IC50,"OPM2 cells; OPM-2, overexpressing ZFP91-Q400H, read-out: Inhibition of Proliferation of OPM2 Cells IC50",0.08 nM
same,increase of the 50% inhibitory concentration relative to the parental cells,OPM2 cells; cells overexpressing stabilized Ikaros mutants,more than 200 fold
same,sensitivity of cell lines with acquired resistance and low CRBN,[2],sensitive
same,anti-proliferative activity,"[2]; DF15R cell line, lacks CRBN expression",little anti-proliferative activity
same,lowest concentration promoting robust degradation of Ikaros and Aiolos,Ikaros and Aiolos [3],1 nM
same,response to treatment,[4],VGPR and PR
same,degradation of Aiolos and Ikaros,Aiolos and Ikaros; 6 hours exposure (0.01 and 0.1 μM) followed by washout,greater than 70%
same,duration of sustained depletion of substrates,"Aiolos and Ikaros; continuous exposure, H929-1051 cells",up to 70 hours
same,duration of sustained degradation of both proteins (Aiolos and Ikaros),Aiolos and Ikaros; [6],more than 150 hours
same,duration of sustained depletion of substrates,Aiolos and Ikaros; [6],up to 100 hours
same,degradation of Aiolos and Ikaros,"Aiolos and Ikaros; single continuous exposure, no washout, H929-1051 and OPM2-P10",greater than 70%
same,biomarker expression in the tumor compartment (IHC),[5],"induced degradation of Aiolos, Ikaros, and ZFP91"
same,shift of the onset of dexamethasone activity in the presence of Compound 2,H929-1051,1 log

# — patent US12510533B2, “Methods for treating multiple myeloma and the use of companion biomarkers for 4-(4-(4-(((2-(2,6-dioxopiperidin-3-yl)-1-oxoisoindolin-4-yl)oxy)methyl)benzyl)piperazin-1-yl)-3-fluorobenzonitrile” (Celgene Corporation, priority 2018, dated 2025)
